Test [1] deals with Interleukin-8 (Homo sapiens) (UniProt P10145). As to the kind of experiment: inhibitors of NFkB activation in CF airway cells, SAR follow-up, KKLEB cells, panel, IL8 HTRF, NFkB-GFP (AID 651592).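 Further: immortalized cystic fibrosis airway epithelial KKLEB cells with an NF-kB GFP reporter.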 As to conditions: PAF/TNFa-induced NFkB-GFP / IL8 HTRF. On the technique in general: Time-resolved FRET reads energy transfer from a long-lived donor to a nearby acceptor.
Test [2] deals with IL8. The test is described as above. The following applies: PAF/TNFa-induced NFkB-GFP / IL8 HTRF, mean of runs, mean IC50 across panel replicates.
Experiment in test [3]: as above
As to conditions: PAF/TNFa-induced NFkB-GFP / IL8 HTRF, CF-PAF assay.

Setting [4] is: mean of runs, mean IC50 across panel replicates.

Structures are written as SMILES.

Experimental findings from PubChem BioAssay AID651592 (Sanford-Burnham Center for Chemical Genomics, 2012) are described below.

Sequence of Interleukin-8 (Homo sapiens) (P10145 whole entry, looked up): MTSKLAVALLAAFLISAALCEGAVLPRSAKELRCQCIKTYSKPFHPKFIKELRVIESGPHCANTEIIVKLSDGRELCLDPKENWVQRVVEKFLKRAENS

As for `CCOc1ccc(NCc2cc3c(-c4ccc(OC)c(OC)c4)nn(-c4ccccc4)c3[nH]c2=O)cc1`, the half-inhibitory concentration (IC50) (as a rule, the midpoint of a concentration-inhibition curve) was 1.25 µM in test [1] (IL8, PAF-induced, run 1); 1.71 µM in test [1] (IL8, PAF-induced, run 2); 1.85 µM in test [1] (IL8, PAF-induced, run 3); 1.33 µM in test [1] (IL8, PAF-induced, run 4); 1.66 µM in test [1] (IL8, PAF-induced, run 5); 1.89 µM in test [1] (IL8, PAF-induced, run 6). The IC50 was greater than 66 µM in test [1] (IL8, TNFa-induced, run 1); greater than 66 µM in test [1] (IL8, TNFa-induced, run 2); greater than 66 µM in test [1] (IL8, TNFa-induced, run 3); greater than 66 µM in test [1] (IL8, TNFa-induced, run 4); greater than 66 µM in test [1] (IL8, TNFa-induced, run 5); greater than 66 µM in test [1] (IL8, TNFa-induced, run 6). In addition, the IC50 is 1.62 µM in test [2] (PAF-induced); greater than 66 µM in test [2] (TNFa-induced); 25.2 µM in test [3] (setting [4]); 18.7 µM in test [3] (run 1); 44.7 µM in test [3] (run 2); 48 µM in test [3] (run 3). Further, the IC50 was 10.4 µM in test [3] (run 4), 12.9 µM in test [3] (run 5) and 16.3 µM in test [3] (run 6).

Consider `O=C(Nc1ccc(N2CCN(C(=O)c3ccc(F)cc3)CC2)cc1)c1cccc(Br)c1`, for which the IC50 in test [1] (IL8, PAF-induced, run 1) is greater than 66 µM; in test [1] (IL8, PAF-induced, run 2), greater than 66 µM; in test [1] (IL8, PAF-induced, run 3), greater than 66 µM; in test [1] (IL8, PAF-induced, run 4), greater than 66 µM; in test [1] (IL8, PAF-induced, run 5), greater than 66 µM; in test [1] (IL8, PAF-induced, run 6), greater than 66 µM. Moreover, the IC50 in test [1] (IL8, TNFa-induced, run 1) is greater than 66 µM; in test [1] (IL8, TNFa-induced, run 2), greater than 66 µM; in test [1] (IL8, TNFa-induced, run 3) it was greater than 66 µM; in test [1] (IL8, TNFa-induced, run 4), greater than 66 µM; in test [1] (IL8, TNFa-induced, run 5) it was greater than 66 µM; in test [1] (IL8, TNFa-induced, run 6) it was greater than 66 µM. Further, the IC50 in test [2] (PAF-induced) is greater than 66 µM; in test [2] (TNFa-induced) it was greater than 66 µM; in test [3] (setting [4]), 43.9 µM; in test [3] (run 1) it was 21.5 µM; in test [3] (run 2), 21.6 µM; in test [3] (run 3), 22.5 µM. Further, the IC50 in test [3] (run 4), in test [3] (run 5) and in test [3] (run 6) was greater than 66 µM in each case.

Regarding `O=C(Nc1ccc(N2CCN(C(=O)c3ccc(F)cc3)CC2)cc1)c1cc(Br)cc(Br)c1`, the IC50 is greater than 66 µM in test [1] (IL8, PAF-induced, run 1); greater than 66 µM in test [1] (IL8, PAF-induced, run 2); greater than 66 µM in test [1] (IL8, PAF-induced, run 3); greater than 66 µM in test [1] (IL8, PAF-induced, run 4); greater than 66 µM in test [1] (IL8, PAF-induced, run 5); greater than 66 µM in test [1] (IL8, PAF-induced, run 6). The IC50 is greater than 66 µM in test [1] (IL8, TNFa-induced, run 1); greater than 66 µM in test [1] (IL8, TNFa-induced, run 2); greater than 66 µM in test [1] (IL8, TNFa-induced, run 3); greater than 66 µM in test [1] (IL8, TNFa-induced, run 4); greater than 66 µM in test [1] (IL8, TNFa-induced, run 5); greater than 66 µM in test [1] (IL8, TNFa-induced, run 6). Besides, the IC50 in test [2] (PAF-induced), in test [2] (TNFa-induced), in test [3] (setting [4]), in test [3] (run 1), in test [3] (run 2) and in test [3] (run 3) was greater than 66 µM in each case. Further, the IC50 in test [3] (run 4), in test [3] (run 5) and in test [3] (run 6) was greater than 66 µM in each case.

Regarding `CCOc1ccc(NCc2cc3c(C(C)(C)C)nn(-c4ccccc4)c3[nH]c2=O)cc1`, the IC50 in test [1] (IL8, PAF-induced, run 1) came to 2.61 µM; in test [1] (IL8, PAF-induced, run 2), 3.3 µM; in test [1] (IL8, PAF-induced, run 3) it was 3.37 µM; in test [1] (IL8, PAF-induced, run 4), 4.49 µM; in test [1] (IL8, PAF-induced, run 5), 4.57 µM; in test [1] (IL8, PAF-induced, run 6), 5.68 µM. In addition, the IC50 in test [1] (IL8, TNFa-induced, run 1) is greater than 66 µM; in test [1] (IL8, TNFa-induced, run 2), greater than 66 µM; in test [1] (IL8, TNFa-induced, run 3), greater than 66 µM; in test [1] (IL8, TNFa-induced, run 4) it was greater than 66 µM; in test [1] (IL8, TNFa-induced, run 5) it was greater than 66 µM; in test [1] (IL8, TNFa-induced, run 6), greater than 66 µM. Moreover, the IC50 in test [2] (PAF-induced) is 4 µM; in test [2] (TNFa-induced), greater than 66 µM; in test [3] (setting [4]), 25.5 µM; in test [3] (run 1), 12.8 µM; in test [3] (run 2), 20.1 µM; in test [3] (run 3), 22.3 µM. Further, the figures for the IC50 in test [3] (run 4), in test [3] (run 5) and in test [3] (run 6) were greater than 66 µM, 13 µM and 19 µM, respectively.

Turning to `O=C(Nc1ccc(N2CCN(C(=O)c3ccc(F)cc3)CC2)cc1)c1ccccn1`, the IC50 in test [1] (IL8, PAF-induced, run 1) was greater than 66 µM; in test [1] (IL8, PAF-induced, run 2) it was greater than 66 µM; in test [1] (IL8, PAF-induced, run 3), greater than 66 µM; in test [1] (IL8, PAF-induced, run 4) it was greater than 66 µM; in test [1] (IL8, PAF-induced, run 5), greater than 66 µM; in test [1] (IL8, PAF-induced, run 6) it was greater than 66 µM. In addition, the IC50 in test [1] (IL8, TNFa-induced, run 1) is greater than 66 µM; in test [1] (IL8, TNFa-induced, run 2), greater than 66 µM; in test [1] (IL8, TNFa-induced, run 3), greater than 66 µM; in test [1] (IL8, TNFa-induced, run 4), greater than 66 µM; in test [1] (IL8, TNFa-induced, run 5), greater than 66 µM; in test [1] (IL8, TNFa-induced, run 6) it was greater than 66 µM. Further, the IC50 in test [2] (PAF-induced), in test [2] (TNFa-induced), in test [3] (setting [4]), in test [3] (run 1), in test [3] (run 2) and in test [3] (run 3) was greater than 66 µM each time. In addition, the IC50 in test [3] (run 4), in test [3] (run 5) and in test [3] (run 6) was greater than 66 µM in each case.

As for `O=C(Nc1ccc(N2CCN(C(=O)c3ccccc3F)CC2)cc1)c1cccc(Br)c1`, the IC50 is greater than 66 µM in test [1] (IL8, PAF-induced, run 1); greater than 66 µM in test [1] (IL8, PAF-induced, run 2); greater than 66 µM in test [1] (IL8, PAF-induced, run 3); greater than 66 µM in test [1] (IL8, PAF-induced, run 4); greater than 66 µM in test [1] (IL8, PAF-induced, run 5); greater than 66 µM in test [1] (IL8, PAF-induced, run 6). Moreover, the half-inhibitory concentration (IC50) in test [1] (IL8, TNFa-induced, run 1) is greater than 66 µM; in test [1] (IL8, TNFa-induced, run 2) it was greater than 66 µM; in test [1] (IL8, TNFa-induced, run 3) it was greater than 66 µM; in test [1] (IL8, TNFa-induced, run 4), greater than 66 µM; in test [1] (IL8, TNFa-induced, run 5), greater than 66 µM; in test [1] (IL8, TNFa-induced, run 6), 6.25 µM. Further, the IC50 is greater than 66 µM in test [2] (PAF-induced); 56 µM in test [2] (TNFa-induced); 42.6 µM in test [3] (setting [4]); 18.1 µM in test [3] (run 1); 18.3 µM in test [3] (run 2); 21.5 µM in test [3] (run 3). In addition, the half-maximal inhibitory concentration (IC50) in test [3] (run 4), in test [3] (run 5) and in test [3] (run 6) was greater than 66 µM in each case.

Take `O=C(Nc1ccc(N2CCN(C(=O)c3ccc(F)cc3)CC2)cc1)c1cccnc1`: the concentration for half-maximal inhibition (IC50) in test [1] (IL8, PAF-induced, run 1) was greater than 66 µM; in test [1] (IL8, PAF-induced, run 2) it was greater than 66 µM; in test [1] (IL8, PAF-induced, run 3), greater than 66 µM; in test [1] (IL8, PAF-induced, run 4), greater than 66 µM; in test [1] (IL8, PAF-induced, run 5), greater than 66 µM; in test [1] (IL8, PAF-induced, run 6), greater than 66 µM. Besides, the IC50 was greater than 66 µM in test [1] (IL8, TNFa-induced, run 1); greater than 66 µM in test [1] (IL8, TNFa-induced, run 2); greater than 66 µM in test [1] (IL8, TNFa-induced, run 3); greater than 66 µM in test [1] (IL8, TNFa-induced, run 4); greater than 66 µM in test [1] (IL8, TNFa-induced, run 5); greater than 66 µM in test [1] (IL8, TNFa-induced, run 6). For the same molecule, the IC50 in test [2] (PAF-induced) is greater than 66 µM; in test [2] (TNFa-induced), greater than 66 µM; in test [3] (setting [4]) it was 41.4 µM; in test [3] (run 1), 38.3 µM; in test [3] (run 2) it was 39.4 µM; in test [3] (run 3), 46.4 µM. The IC50 in test [3] (run 4), in test [3] (run 5) and in test [3] (run 6) was greater than 66 µM in each case.

For the molecule `O=C(Nc1ccc(N2CCN(C(=O)c3ccccc3)CC2)cc1)c1cccnc1`, the IC50 in test [1] (IL8, PAF-induced, run 1) was greater than 66 µM; in test [1] (IL8, PAF-induced, run 2), greater than 66 µM; in test [1] (IL8, PAF-induced, run 3) it was 7.51 µM; in test [1] (IL8, PAF-induced, run 4), greater than 66 µM; in test [1] (IL8, PAF-induced, run 5), greater than 66 µM; in test [1] (IL8, PAF-induced, run 6), 36.4 µM. In addition, the IC50 in test [1] (IL8, TNFa-induced, run 1) was greater than 66 µM; in test [1] (IL8, TNFa-induced, run 2) it was greater than 66 µM; in test [1] (IL8, TNFa-induced, run 3) it was greater than 66 µM; in test [1] (IL8, TNFa-induced, run 4), greater than 66 µM; in test [1] (IL8, TNFa-induced, run 5), greater than 66 µM; in test [1] (IL8, TNFa-induced, run 6), greater than 66 µM. For the same molecule, the IC50 in test [2] (PAF-induced) is 40.3 µM; in test [2] (TNFa-induced) it was greater than 66 µM; in test [3] (setting [4]) it was 42.9 µM; in test [3] (run 1) it was 17 µM; in test [3] (run 2), 20.7 µM; in test [3] (run 3) it was 21.9 µM. The 50% inhibitory concentration (IC50) in test [3] (run 4), in test [3] (run 5) and in test [3] (run 6) was greater than 66 µM in each case.
